According to US20110288106A1, “ADENINE RECEPTOR LIGANDS” (Rheinische Friedrich-Wilhelms-Universitaet Bonn …, priority 2008, published 2011):
Where a name gives a salt, the structure may show the parent alone.

Key:
rAde1R [1] = molecular target: T1, rAde1R (Rattus norvegicus, UniProt Q7TN49); settings: literature, Gorzalka et al. 2005; cited from earlier work
T1 construct: expressed in transfected cells; host or cells: 1321N1 human astrocytoma cells
T1 sequence (Q7TN49 1-304): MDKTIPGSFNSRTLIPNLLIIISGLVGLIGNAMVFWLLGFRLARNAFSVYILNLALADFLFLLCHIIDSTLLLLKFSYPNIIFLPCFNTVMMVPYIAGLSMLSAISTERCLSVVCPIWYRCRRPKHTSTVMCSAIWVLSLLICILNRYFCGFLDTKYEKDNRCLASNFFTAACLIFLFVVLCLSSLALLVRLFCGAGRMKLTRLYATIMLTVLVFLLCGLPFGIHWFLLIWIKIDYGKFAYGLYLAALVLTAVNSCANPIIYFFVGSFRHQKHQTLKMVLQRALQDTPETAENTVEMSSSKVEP

rAde1R [2] = molecular target: T1, rAde1R; test: cAMP-dependent luciferase assay, inhibition of isoproterenol-stimulated cAMP accumulation; assay type: cell-based; settings: for effect on isoproterenol-induced cAMP accumulation: 3 nM isoproterenol, n=3
Procedure: (§1) 1321N1 cells stably expressing the rAde1R were cultured in DMEM supplemented with 10% (v/v) FCS, L-glutamine (2 mM), penicillin (100 U/ml), streptomycin (100 U/ml) and 400 μg/ml G 418 at 37° C. under a humidified atmosphere containing 5% CO2. Cells were cultured in 75 cm^2 flasks (3.2×10^5) for 24 h without antibiotics so that they were 90-95% confluent before transfection. The cAMP responsive reporter plasmid (pCER-luc) or serum response element (pSRE-luc) was transfected into 1321N1 cells expressing rat adenine receptors using Lipofectamine 2000 as a transfection reagent.
Reporter cells were seeded at a density of […] cells/well in a 24-well plate 18-20 hr prior to assay. After removal of culture medium, cells were washed twice with Hanks' balanced salt solution (containing 20 mM HEPES, pH 7.3). Adenine and selected adenine derivatives were diluted in Hanks' balanced salt solution containing 3 nM isoproterenol and then incubated with reporter cells in the same buffer for 3 h at 37° C. The reaction was stopped by removal of the reaction buffer and the luciferase expression was determined using Bright-Glo™ Luciferase assay system (Promega) as described in the kit protocol. Plates were shaken for 2 min to ensure complete lysis of cells. Then the total volume from each well was transferred to a white 96-well plate (Greiner bio-one). Luminescence was determined using a NOVOstar microplate reader (BMG labtech); each well was counted for 2 s at 20° C.

Rat adenine receptor = molecular target: T2, Rat adenine receptor (Rattus norvegicus, UniProt Q7TN49); test: Radioligand binding assay, [3H]adenine competition, rat cortical membrane preparations; settings: rat cortex membranes, vs. 10 nM [3H]adenine, mean ± SEM
T2 construct: 50 μg of rat cortical membrane preparations; from tissue; host or cells: rat brain cortex membranes
T2 sequence (Q7TN49 1-304): T1 sequence (Q7TN49 1-304)
Procedure: (§2) Competition assays with [8-^3H]adenine (27 Ci/mmol; GE Healthcare) were carried out as described previously (Gorzalka et al., Mol. Pharmacol. 2005, 67, 955-964). In brief, 50 μg of rat cortical membrane preparations or 100 μg of protein (HEK293 (human embryonic kidney) cell membrane preparations) was incubated with 10 nM [8^3H]adenine in 50 mM Tris-HCl buffer, pH 7.4, in a total volume of 200 μl. Inhibition curves were determined using 6 to 9 different concentrations of selected adenine derivative. Three separate experiments were performed each in triplicate. Nonspecific binding was determined by using 100 μM adenine. Incubations were carried out for 1 h at room temperature and terminated by rapid filtration through GF/B glass fiber filters (Whatman, Dassel, Germany). Filters were washed three times with ice-cold 50 mM Tris-HCl buffer, pH 7.4, 3 ml each. Filter-bound radioactivity was measured by liquid scintillation counting.
(§3) Data points represent means±SEM of three separate experiments each performed in triplicate.

Human adenine receptor = test: Radioligand binding assay, [3H]adenine competition, HEK293 cell membrane preparations; settings: HEK293 cell membranes, vs. 10 nM [3H]adenine, mean ± SEM
Procedure: as §2, §3

[3] = test system: non-transfected 1321N1 astrocytoma cells; test: Erk phosphorylation assay (SRE-dependent luciferase), non-transfected cells; assay type: cell-based, human; settings: 6 h
rAde1R [4] = molecular target: T1, rAde1R; test: Erk phosphorylation assay (SRE-dependent luciferase), 1321N1 cells expressing rAde1R; assay type: cell-based; settings: 1321N1 astrocytoma cells stably expressing rAde1R, 6 h
Procedure: as §1
Erk phosphorylation was investigated by a gene reporter assay measuring SRE-dependent luciferase activity in astrocytoma cells stably transfected with the rat adenine receptor. The cells were seeded in a 24-well plate prior to the assay. The culture medium was removed and cells were washed twice with Hanks' balanced salt solution without HEPES, pH 7.3. Adenine was diluted in the same buffer and then added to the cells, which were incubated for 6 h at 37° C. The reaction was stopped by removal of the reaction buffer and the luciferase expression was determined as described before.

[5] = 10 μM compound, 1321N1 cells expressing rAde1R

Row | SMILES | melting point [°C] | Ki (Rat adenine receptor) [µM] | Ki (Human adenine receptor) [µM] | further results
1 | O=C(CCNCCc1ccccc1)Nc1ncnc2[nH]cnc12 (as salt: hydrochloride) [Example 13, 3-Phenethyl-amino-N(9H-purin-6-yl)propionamide dihydrochloride] | 196 | – | – | –
2 | Cn1cnc2ncnc-2c1N [1-methyl-adenine] | – | – | – | values at the rAde1R (rAde1R [1]): micromolar range
3 | Cn1cnc(N)c2ncnc1-2 [3-methyl-adenine] | – | – | – | values at the rAde1R (rAde1R [1]): micromolar range
4 | Cn1cnc2ncnc(N)c21 [7-methyl-adenine] | – | – | – | values at the rAde1R (rAde1R [1]): micromolar range
5 | Cn1cnc2c(N)ncnc21 [9-methyl-adenine] | – | – | – | values at the rAde1R (rAde1R [1]): micromolar range
6 | CN(CCC(=O)Nc1ncnc2[nH]cnc12)C(=O)OC(C)(C)C [Example 1, 3-(tert-Butyloxycarbonyl-methyl-amino)-N(9H-purin-6-yl)propionamide] | 205 | 0.949 ± 0.135 | 5.47 ± 1.28 | effect on isoproterenol-induced cAMP accumulation (rAde1R [2]; [5]): adenine receptor agonists
7 | CCN(CCC(=O)Nc1ncnc2[nH]cnc12)C(=O)OC(C)(C)C [Example 2, 3-(tert-Butyloxycarbonyl-ethyl-amino)-N(9H-purin-6-yl)propionamide] | 198 | 2.93 ± 0.4 | 7.7 ± 2.4 | –
8 | CCCN(CCC(=O)Nc1ncnc2[nH]cnc12)C(=O)OC(C)(C)C [Example 3, 3-(tert-Butyloxycarbonyl-propyl-amino)-N(9H-purin-6-yl)propionamide] | 205 | 11.8 ± 0.8 | ≥ 100 | –
9 | CCCCCCN(CCC(=O)Nc1ncnc2[nH]cnc12)C(=O)OC(C)(C)C [Example 4, 3-(tert-Butyloxycarbonyl-hexyl-amino)-N(9H-purin-6-yl)propionamide] | 185 | 1.56 ± 0.026 | 19.7 ± 0.7 | –
10 | CC(C)(C)OC(=O)N(CCC(=O)Nc1ncnc2[nH]cnc12)Cc1ccccc1 [Example 5, 3-(tert-Butyloxycarbonyl-benzyl-amino)-N(9H-purin-6-yl)propionamide] | 202 | 9.02 ± 0.55 | 42.1 ± 1.8 | –
11 | CC(C)(C)OC(=O)N(CCC(=O)Nc1ncnc2[nH]cnc12)CCc1ccccc1 [Example 6, 3-(tert-Butyloxycarbonyl-phenethyl-amino)-N(9H-purin-6-yl)propionamide] | 162 | 9.07 ± 0.8 | ≥ 100 | –
12 | O=C(CCNCCc1ccccc1)Nc1ncnc2[nH]cnc12 [Example 13, 3-Phenethyl-amino-N(9H-purin-6-yl)propionamide dihydrochloride] | – | 2.12 ± 0.07 | 6.93 ± 0.83 | –
13 | Nc1ncnc2nc[nH]c12 [adenine] | – | – | – | EC50 (rAde1R [2]; in the absence of compound 9): 2.24 ± 1.83 nM; EC50 (rAde1R [2]; in the presence of compound 9 (10 μM)): 115 ± 42 nM; SRE-dependent luciferase expression / erk phosphorylation [3]: no effect; SRE-dependent luciferase expression / erk phosphorylation (rAde1R [4]): dose-dependent stimulation of erk phosphorylation; Ki (rAde1R [1]): 29.9 nM

More lines, main results first:

Row | melting point [°C] | Ki (Rat adenine receptor) [µM] | SMILES | Ki (Human adenine receptor) [µM] | further results
14 | 213 | – | CNCCC(=O)Nc1ncnc2[nH]cnc12 (as salt: hydrochloride) [Example 9, 3-Methyl-amino-N(9H-purin-6-yl)propionamide dihydrochloride] | – | –
15 | 216 | – | CCNCCC(=O)Nc1ncnc2[nH]cnc12 (as salt: hydrochloride) [Example 10, 3-Ethyl-amino-N(9H-purin-6-yl)propionamide dihydrochloride] | – | –
16 | 171 | – | CCCNCCC(=O)Nc1ncnc2[nH]cnc12 (as salt: hydrochloride) [Example 11, 3-Propyl-amino-N(9H-purin-6-yl)propionamide dihydrochloride] | – | –
17 | 197 | – | O=C(CCNCc1ccccc1)Nc1ncnc2[nH]cnc12 (as salt: hydrochloride) [Example 12, 3-Benzyl-amino-N(9H-purin-6-yl)propionamide dihydrochloride] | – | –
18 | 191 | 0.334 ± 0.031 | CC(C)(C)OC(=O)NCCC(=O)Nc1ncnc2[nH]cnc12 [Example 7, 3-tert-Butyloxycarbonylamino-N(9H-purin-6-yl)propionamide] | 0.719 ± 0.081 | –
19 | 223 | 3.39 ± 0.56 | CC(C)(C)OC(=O)NCCCC(=O)Nc1ncnc2[nH]cnc12 [Example 8, 4-tert-Butyloxycarbonylamino-N(9H-purin-6-yl)butyramide] | 2.68 ± 0.37 | –
20 | – | 0.292 ± 0.056 | CNCCC(=O)Nc1ncnc2[nH]cnc12 [Example 9, 3-Methyl-amino-N(9H-purin-6-yl)propionamide dihydrochloride] | 1.83 ± 0.09 | effect on isoproterenol-induced cAMP accumulation (rAde1R [2]; [5]): no significant effect; Kb (rAde1R [2]; calculated from shift of adenine curve by 10 μM compound 9): 165 nM; effect on concentration-response curve of adenine (rAde1R [2]; compound 9 at 10 μM, 1321N1 cells expressing rAde1R, FIG. 5): shifted the concentration-response curve of adenine to the right proving that it is an antagonist
21 | – | 0.508 ± 0.163 | CCNCCC(=O)Nc1ncnc2[nH]cnc12 [Example 10, 3-Ethyl-amino-N(9H-purin-6-yl)propionamide dihydrochloride] | 1.34 ± 0.48 | effect on isoproterenol-induced cAMP accumulation (rAde1R [2]; [5]): adenine receptor agonists
22 | – | 1.29 ± 0.24 | CCCNCCC(=O)Nc1ncnc2[nH]cnc12 [Example 11, 3-Propyl-amino-N(9H-purin-6-yl)propionamide dihydrochloride] | 6.85 ± 2.17 | –
23 | – | 0.852 ± 0.131 | O=C(CCNCc1ccccc1)Nc1ncnc2[nH]cnc12 [Example 12, 3-Benzyl-amino-N(9H-purin-6-yl)propionamide dihydrochloride] | 3.27 ± 1.23 | effect on isoproterenol-induced cAMP accumulation (rAde1R [2]; [5]): adenine receptor agonists
24 | 204 | 0.0215 ± 0.0056 | Cl.NCCC(=O)Nc1ncnc2[nH]cnc12 [Example 14, 3-Amino-N(9H-purin-6-yl)propionamide hydrochloride] | 0.0447 ± 0.0034 | effect on isoproterenol-induced cAMP accumulation (rAde1R [2]; 1 μM compound, 1321N1 cells expressing rAde1R): adenine receptor agonists; inhibition of isoproterenol-stimulated cAMP accumulation by different concentrations (rAde1R [2]; 1321N1 cells expressing rAde1R, FIG. 4): concentration-dependent inhibition
25 | 199 | 0.0805 ± 0.003 | Cl.NCCCC(=O)Nc1ncnc2[nH]cnc12 [Example 15, 4-Amino-N(9H-purin-6-yl)butyramide hydrochloride] | 0.149 ± 0.045 | effect on isoproterenol-induced cAMP accumulation (rAde1R [2]; [5]): adenine receptor agonists
